Data as given in patent US10746637B2, “Aldehyde scavenging agent for retrieving elements from fixed tissue” (University of Houston System, priority 2013, dated 2020).
Where two headings read alike, the source gives them in different places.

How the values were obtained:
[1] = tested on: RNA; experiment: Recovery of RNA from formalin-fixed paraffin-embedded tissue samples (FIG. 30)
[2] = tested on: Collagen IV; experiment: Immunohistochemical staining of Collagen IV on formalin fixed paraffin embedded mouse brain sections after antigen retrieval with formaldehyde scavengers and enhancer; parameters: key: − being non-reactive; Immunoreactivity was scored on a scale of − to +++; Immunoreactivity was scored on a scale of − to +++; +++ being highly reactive; details: 45 minutes at 95° C.
Description: 12-month-old C57Bl6J mice were housed under controlled environment conditions on a condition al 12 hour light dark cycle. Following sacrifice, brains were post-fixed in 4% paraformaldehyde for 72 hours at […] and then transferred to 70% ethanol solution where they were stored at 4° C. Tissue was paraffin-processed using convention dehydration and embedding, and then sectioned at 5 μm intervals.
Tissues were deparaffinized and rehydrated. Slides were placed in a plastic Coplin jar containing either distilled water or a combination of formaldehyde scavengers in combination with an enhancer. Jars were covered with a loose fitting screw cap and heated in a pressure cooker for 45 minutes at 95° C. After heating, the Coplin jars were removed and allowed to cool and rinsed in TBST for five minutes.
Immunohistochemical staining was performed using a three-step immunostaining technique using the ABC method. Briefly, all incubations were performed as follows: 1) primary antibodies were incubated overnight at 4° C., 2) secondary antibodies were incubated for 10 minutes at room temperature, 3) streptavidin-conjugated enzyme was incubated for 10 minutes at room temperature, 4) peroxidase substrate was incubated for 1 minute.

[3] = tested on: collagen IV
[4] = tested on: Angiotensin I; experiment: Mass spectrometry of formalin treated Angiotensin I after heating with aldehyde scavenging compounds; details: 5% compound, 95° C., 45 minutes
Description: Angiotensin I is treated with formalin at room temperature for 48 hours. […] Mass-spectrometry is used to analyze the compositions of the Angiotensin I before and after treatment by each compound. Samples of Angiotensin I before (FIG. 11A) and after (FIG. 11B) formalin treatments are used as the controls for the experiment. Peaks at m/z 1296 represent unmodified Angiotensin I. Peaks at m/z 1308 represent Angiotensin I with 1 methylene unit. Peaks at m/z 1320 represent Angiotensin I with 2 methylene units. Peaks at m/z 1338 represent Angiotensin I with 1 methylene unit and 1 hydroxymethylene group. Peaks at m/z 1350 represent Angiotensin I with 2 methylene units and 1 hydroxymethylene group.

[5] = compared to control buffer (FIG. 30)
[6] = microscope images, figure legends
[7] = Table 2, aniline compounds, FFPE mouse brain sections

SMILES | recovery of RNA from formalin-fixed paraffin-embedded tissue samples [1, 5] | immunostaining of Collagen IV after antigen retrieval [3, 6] | Result (immunoreactivity, Collagen IV staining) [2, 7] | other results
NOCc1ccccc1 [1% O-Benzylhydroxylamine, O-Benzylhydroxylamine] | enhanced recovery of RNA | enhanced immunostaining |  | Result (immunoreactivity, Collagen IV staining) ([2]; Table 6, 1% O-benzylhydroxylamine alone or with aniline, concentrations in label): +; Result (immunoreactivity, Collagen IV staining) ([2]; Table 7, 0.5% O-benzylhydroxylamine alone or with aniline, concentrations in label): +
CCCC(N)O (centres unmarked) [1-amino-1-butanol] |  | enhanced immunostaining |  | 
COc1ccc(N)c(C(=O)O)c1 [2-Amino-5-methoxybenzoic acid] | enhanced recovery of RNA |  | − | 
CC(N)(CO)CO [2-amino-2-methyl-1,3-propanediol] |  | enhanced immunostaining |  | 
O=C1CCCN1 [2-pyrrolidinone] |  | enhanced immunostaining |  | 
Nc1ccc(O)cc1 [4-Aminophenol] | enhanced recovery of RNA | enhanced immunostaining | ++ | 
CCOc1ccc(N)cc1 [4-Ethoxyaniline] |  |  | + | immunostaining of Collagen IV after antigen retrieval [3]: enhanced immunostaining
Nc1ccccc1 [Aniline] | enhanced recovery of RNA | enhanced immunostaining | ++ | 
NC(=O)C[C@H](N)C(=O)O [L-asparagine] |  | enhanced immunostaining |  | 
NOCC(=O)O [O-(carboxymethyl)hydroxylamine] | enhanced recovery of RNA | enhanced immunostaining |  | 
CCON [O-ethylhydroxylamine] | enhanced recovery of RNA | enhanced immunostaining |  | 
Nc1ccc(S(=O)(=O)O)cc1 [Sulfanilic acid] | enhanced recovery of RNA | enhanced immunostaining | ++ | 
CC(=O)CC(N)=O [acetoacetamide] |  | enhanced immunostaining |  | 
O=C1CC(=O)NC(=O)N1 [barbituric acid] |  |  |  | immunostaining of Collagen IV after antigen retrieval [3]: enhanced immunostaining
O=C(O)CC(O)(CC(=O)O)C(=O)O [citric acid, reference compound] |  |  |  | amount of Angiotensin I with 2 methylene units (m/z 1320) [4]: significantly reduce; content of Angiotensin I with 1 methylene unit and 1 hydroxymethylene group (m/z 1338) [4]: significantly reduce; retrieval of formalin adducts of Angiotensin I [4]: significant retrieval of formalin adducts
CC1(C)CC(=O)CC(=O)C1 [dimedone, 5,5-dimethyl-1,3-cylohexanedione] |  | enhanced immunostaining |  | 
O=C1NCCN1 [imidazolidone] |  |  |  | amount of Angiotensin I with 2 methylene units (m/z 1320) [4]: significantly reduce; content of unmodified Angiotensin I (m/z 1296) [4]: higher content of unmodified Angiotensin I
COc1ccc(N)cc1 [p-Anisidine] |  |  | ++ | recovery of RNA from formalin-fixed paraffin-embedded tissue samples [1]: enhanced recovery of RNA; immunostaining of Collagen IV after antigen retrieval [3]: enhanced immunostaining
Nc1ccc(N)cc1 [p-Phenylenediamine] |  |  | + | immunostaining of Collagen IV after antigen retrieval [3]: enhanced immunostaining
Cc1ncc(CO)c(CN)c1O [pyridoxamine] |  | enhanced immunostaining |  | 
O=C1CCC(=O)N1 [succinimide] |  | enhanced immunostaining |  | 
O=C(OC[C@H]1O[C@@H](OC(=O)c2cc(O)c(O)c(OC(=O)c3cc(O)c(O)c(O)c3)c2)[C@H](OC(=O)c2cc(O)c(O)c(OC(=O)c3cc(O)c(O)c(O)c3)c2)[C@@H](OC(=O)c2cc(O)c(O)c(OC(=O)c3cc(O)c(O)c(O)c3)c2)[C@@H]1OC(=O)c1cc(O)c(O)c(OC(=O)c2cc(O)c(O)c(O)c2)c1)c1cc(O)c(O)c(OC(=O)c2cc(O)c(O)c(O)c2)c1 [tannic acid] |  | enhanced immunostaining |  | 
